Patent US20090036387A1, “NOVEL CHEMICAL ENTITIES AFFECTING NEUROBLASTOMA TUMOR-INITIATING CELLS” (The Hospital for Sick Children, priority 2005, published 2009)
Structures can show the parent of a compound that is named as a salt.

The compounds below were run on NB12 tumor-initiating cells (assay: IC50 determination, Alamar Blue cell survival/growth assay). Conditions: Homo sapiens, read-out: NB12 IC50 (nM).
Type: cell-based, human
Description: FIG. 4A-4E, according to one embodiment of the invention, presents the IC50 values that were determined for the 64 selected candidate compounds. […] Tumor-initiating cells and normal cells were treated with 10 serial dilutions of compounds (5 μM to 9 nM). […] (FS90=normal cells; NB12=tumor-initiating cells).
FIG. 6A-6FF, according to one embodiment of the invention, presents IC50 values for 32 selected compounds from the LOPAC and Prestwick collections. Tumor-initiating cells (NB12) and normal cells (FS90) were treated with 10 serial dilutions of compounds ranging from 5 μM to 9 nM. Cell survival/growth was assayed using Alamar Blue and the percentage of control Alamar Blue signal was plotted versus log[compound] nM. IC50 values for NB12 are given above each plot.
FIG. 7A-7FF, according to one embodiment of the invention, represents IC50 values determined for 32 selected compounds from the LOPAC, Prestwick, and Spectrum collections. Tumor-initiating cells (NB12) and normal cells (FS90) were treated with 10 serial dilutions of compounds ranging from 5 μM to 9 nM. Cell survival/growth was assayed using Alamar Blue and the percentage of control Alamar Blue signal was plotted versus log[compound] nM (FS90 in dashed line, NB12 in bolded line). IC50 values for NB12 and FS90 are given beside each plot.
To identify compounds that suppress the growth and survival of neuroblastoma (NB) tumor-initiating cells and not nontransformed normal cells (SKPs), a cell-based assay was established and used in which NB tumor-initiating cells from a multiple relapse NB patient (NB12, passage 6-17) and normal SKPs (FS90, passage 2-5) were tested in parallel to detect specific alterations of cell viability/proliferation. For each cell type, cells were passaged 5 days prior to screening. Three thousand (3000) cells in 100 µL SKPs growth media (B27, bFGF, EGF, P/S, fungizone in DMEM:F12 with 50% hFS conditioned media) were robotically plated in uncoated 96 well plates and treated with test compound for 30 hours, prior to a 24 hour incubation in the presence of Alamar Blue and subsequent fluorometric reading.
Thirty-two (32) compounds were selected for IC50 determinations using FS90, FS105, and NB12. IC50 for the remaining compounds of interest will be tested at a later date (in combination with hits from additional libraries).

Row | Compound | IC50
1 | C[C@H]1O[C@@H](O[C@H]2[C@@H](O)C[C@H](O[C@H]3[C@@H](O)C[C@H](O[C@H]4CC[C@@]5(C)[C@H](CC[C@@H]6[C@@H]5C[C@@H](O)[C@]5(C)[C@@H](C7=CC(=O)OC7)CC[C@]65O)C4)O[C@@H]3C)O[C@@H]2C)C[C@H](O)[C@@H]1O [Digoxin] | 542 nM
2 | C[n+]1cc2c3c(ccc2c2ccc4cc5c(cc4c21)OCO5)OCO3 [Sanguinarine chloride] | 1800 nM

Same assay, conditions: Homo sapiens; NB12; 10 serial dilutions 5 μM to 9 nM; Alamar Blue; read-out: NB12 IC50

Row | Compound | IC50
3 | CC[C@@]1(O)C[C@H](O[C@H]2C[C@H](N(C)C)[C@H](O)[C@H](C)O2)c2c(cc3c(c2O)C(=O)c2c(O)cccc2C3=O)[C@H]1C(=O)OC [AKLAVINE HYDROCHLORIDE] | 778 nM
4 | COc1cc(NS(C)(=O)=O)ccc1Nc1c2ccccc2nc2ccccc12 [AMSACRINE HYDROCHLORIDE] | 1210 nM
5 | CCN(CC)Cc1cc(Nc2ccnc3cc(Cl)ccc23)ccc1O [Amodiaquin dihydrochloride dihydrate] | 790 nM
6 | N=c1ccn2c(n1)O[C@H]1[C@H](O)[C@@H](CO)O[C@H]12 [Ancitabine hydrochloride] | 520 nM
7 | Cc1cc(C2CCCCC2)n(O)c(=O)c1 [CICLOPIROX OLAMINE] | 2050 nM
8 | C[C@@H]1O[C@@H](O[C@H]2CC[C@]3(C=O)[C@H]4CC[C@]5(C)[C@@H](C6=CC(=O)OC6)CC[C@]5(O)[C@@H]4CC[C@]3(O)C2)[C@H](O)[C@H](O)[C@H]1O [CONVALLATOXIN] | 73.2 nM
9 | C=C1C(=O)O[C@H]2C[C@@H]1C(OC(C)=O)C/C(C)=C/CC/C(C)=C/CC[C@@]2(C)O (some centres unmarked) [CRASSIN ACETATE] | 1950 nM
10 | COc1ccc2c(c[n+](C)c3c4cc5c(cc4ccc23)OCO5)c1OC [Chelerythrine chloride] | 2550 nM
11 | CC(C)/N=c1\cc2n(-c3ccc(Cl)cc3)c3ccccc3nc-2cc1Nc1ccc(Cl)cc1 [Clofazimine] | 1420 nM
12 | CC(C)=CCCC1(C)C=Cc2c(O)c3c(c(CC=C(C)C)c2O1)OC12C(=CC4CC1C(C)(C)OC2(C/C=C(/C)C(=O)O)C4O)C3=O (centres unmarked) [DIHYD[…]] | 1690 nM
13 | Cc1cc(N)c2ccccc2[n+]1CCCCCCCCCC[n+]1c(C)cc(N)c2ccccc21 [Dequalinium dichloride] | 3620 nM
14 | CS(=O)(=O)CCCCN=C=S [ERYSOLIN] | 3280 nM
15 | COc1cc([C@@H]2c3cc4c(cc3[C@@H](O[C@@H]3O[C@@H]5CO[C@@H](C)O[C@H]5[C@H](O)[C@H]3O)[C@H]3COC(=O)[C@H]23)OCO4)cc(OC)c1O [Etoposide] | 694 nM
16 | CC(C)=CCC[C@]1(C)C=Cc2c(O)c3c(c(CC=C(C)C)c2O1)O[C@]12C(=C[C@@H]4C[C@H]1C(C)(C)O[C@@]2(C/C=C(/C)C(=O)O)C4=O)C3=O [GAMBOGIC ACID] | 1700 nM
17 | CC(=O)[C@]1(O)Cc2c(O)c3c(c(O)c2[C@@H](O[C@H]2C[C@H](N)[C@H](O)[C@H](C)O2)C1)C(=O)c1ccccc1C3=O [Idarubicin] | 204 nM
18 | Cc1cccc(CN2CCN(C(c3ccccc3)c3ccc(Cl)cc3)CC2)c1 (centres unmarked) [MECLIZINE HYDROCHLORIDE] | 2540 nM
19 | CC[N+](CC)(CC)CCOc1ccc(/C=C/c2ccccc2)cc1 [MG 624] | 848 nM
20 | O=C1c2c(O)ccc(O)c2C(=O)c2c(NCCNCCO)ccc(NCCNCCO)c21 [MITOXANTHRONE HYDROCHLORIDE] | 60.5 nM
21 | C[C@@H]1O[C@@H](O[C@H]2C[C@@H](O)[C@]3(CO)[C@H]4[C@H](O)C[C@]5(C)[C@@H](C6=CC(=O)OC6)CC[C@]5(O)[C@@H]4CC[C@]3(O)C2)[C@H](O)[C@H](O)[C@H]1O [Ouabain] | 123 nM
22 | CO[C@H]1C[C@H](O[C@H]2CC[C@]3(C)[C@H]4CC[C@]5(C)[C@@H](C6=CC(=O)OC6)CC[C@]5(O)[C@@H]4CC[C@]3(O)C2)O[C@H](C)[C@H]1O [PERIPLOCYMARIN] | 2700 nM
23 | CO[C@H]1[C@H](O)[C@H](O[C@H]2CC[C@@]3(C=O)[C@H](CC[C@@H]4[C@@H]3CC[C@]3(C)[C@@H](C5=CC(=O)OC5)CC[C@]43O)C2)O[C@@H](C)[C@@H]1O [PERUVOSIDE] | 222 nM
24 | COc1cc([C@@H]2c3cc4c(cc3[C@H](O)[C@H]3COC(=O)[C@H]23)OCO4)cc(OC)c1OC [Podophyllotoxin] | 135 nM
25 | CCN(CC)CCCC(C)Nc1c2ccc(Cl)cc2nc2ccc(OC)cc12 (centres unmarked) [Quinacrine dihydrochloride] | 2560 nM
26 | COc1cc([C@@H]2c3cc4c(cc3[C@@H](O[C@@H]3O[C@@H]5CO[C@@H](c6cccs6)O[C@H]5[C@H](O)[C@H]3O)[C@H]3COC(=O)[C@H]23)OCO4)cc(OC)c1O [TENIPOSIDE] | 706 nM
27 | CC[C@]1(O)C[C@H]2CN(CCc3c([nH]c4ccccc34)[C@@](C(=O)OC)(c3cc4c(cc3OC)N(C=O)[C@H]3[C@@](O)(C(=O)OC)[C@H](OC(C)=O)[C@]5(CC)C=CCN6CC[C@]43[C@@H]65)C2)C1 [Vincristine sulfate] | 62 nM

Same assay, conditions: NB12; 10 serial dilutions 5 μM to 9 nM; Alamar Blue; read-out: NB12 IC50

Row | Compound | IC50
28 | Nc1nc(O)c2[nH]nnc2n1 [Azaguanine-8] | 331 nM
29 | CC(C)CCC[C@@H](C)[C@H]1CC[C@H]2[C@@H]3C[C@@H](O)[C@@]4(O)C[C@@H](O)CC[C@]4(C)[C@H]3CC[C@]12C [CHOLESTAN-3beta.5alpha.6beta-TRIOL] | 2410 nM
30 | CO[C@H]1C=C[C@@]23c4cc5c(cc4CN(C[C@@H]2O)[C@H]3C1)OCO5 [CRINAMINE] | 1740 nM
31 | CC[C@@]1(O)C(=O)OCc2c1cc1n(c2=O)Cc2cc3ccccc3nc2-1 [Camptothecine (S.+)] | 183 nM
32 | C[C@@H]1O[C@@H](O[C@H]2C[C@@H](O)[C@]3(CO)[C@H]4[C@H](O)C[C@]5(C)[C@@H]([C@@H]6COC(=O)C6)CC[C@]5(O)[C@@H]4CC[C@]3(O)C2)[C@H](O)[C@H](O)[C@H]1O [Dihydroouabain] | 1540 nM
33 | COc1cc([C@@H]2c3cc4c(c(O)c3C[C@H]3COC(=O)[C@@H]32)OCO4)cc(OC)c1OC [beta-PELTATIN] | 1950 nM
34 | Dequalinium analog. C-14 linker | 1110 nM
35 | Vinblastine sulfate salt | 113 nM
